One block for each molecule: values may come before it.
Tests used:
[1] = tested on: Ovarian-39 (OV39) ovarian cancer PDX; experiment: In vivo efficacy, OV39 ovarian cancer PDX; set-up: species or system NOD/SCID mice (human tumor PDX); details: for mean tumor volume: 1.5 mg/kg
BR17 = experiment: In vivo efficacy, BR17 HER2+ breast tumor model; set-up: species or system mice; details: 1.5 mpk
Source text: (§1) In breast and ovarian models, tumor regression was defined as a reduction in mean tumor volume after dosing. TGI=Tumor Growth Inhibition. % TGI=[1−(Mean Tumor Volume of Treated)/(Mean Tumor Volume of Vehicle)]. […] ADC dose levels are listed in mg/kg according to antibody content.

BR25 = experiment: In vivo efficacy, BR25 TNBC Claudin-low tumor model; set-up: species or system mice; details: 1.5 mpk
Source text: as §1

[2] = tested on: Breast-22 (BR22) TNBC PDX; experiment: In vivo efficacy, BR22 TNBC PDX; details: for tumor volume ± SEM: 1.5 mg/kg
Source text: as §1

[3] = tested on: Breast-5 (BR5) triple-negative breast cancer (TNBC) PDX; experiment: In vivo efficacy, BR5 TNBC PDX; set-up: species or system NOD/SCID mice (human tumor PDX); details: for tumor volume ± SEM: 1.5 mg/kg
[4] = tested on: Breast-31 (BR31) TNBC PDX; experiment: In vivo efficacy, BR31 TNBC PDX; set-up: species or system NOD/SCID mice (human tumor PDX); details: for mean tumor volume: 1.5 mg/kg
BR64 = experiment: In vivo efficacy, BR64 TNBC Claudin-low tumor model; set-up: species or system mice; details: 1.5 mpk
Source text: as §1

[5] = tested on: Breast-13 (BR13) TNBC PDX; experiment: In vivo efficacy, BR13 TNBC PDX; set-up: species or system NOD/SCID mice (human tumor PDX); details: for tumor volume ± SEM: 1.5 mg/kg
[6] = tested on: Breast-56 (BR56) TNBC PDX; experiment: In vivo efficacy, BR56 TNBC PDX; set-up: species or system NOD/SCID mice (human tumor PDX); details: for tumor volume ± SEM: 1.5 mg/kg
[7] = tested on: Ovarian-44 (OV44) ovarian cancer PDX; experiment: In vivo efficacy, OV44 ovarian cancer PDX; set-up: species or system NOD/SCID mice (human tumor PDX); details: 5 mpk, once a week for 2 cycles
[8] = tested on: Ovarian-63 (OV63) ovarian cancer PDX; experiment: In vivo efficacy, OV63 ovarian cancer PDX; set-up: species or system NOD/SCID mice (human tumor PDX); mean tumor volume: unit not given beside the values; details: for mean tumor volume: 5.0 mg/kg
human EFNA4 = target: T1, human EFNA4 (Homo sapiens, UniProt P52798); experiment: Biacore affinity of anti-EFNA4 antibodies for EFNA4 antigen; format: binding; details: Biacore system
T1 sequence (P52798 26-170): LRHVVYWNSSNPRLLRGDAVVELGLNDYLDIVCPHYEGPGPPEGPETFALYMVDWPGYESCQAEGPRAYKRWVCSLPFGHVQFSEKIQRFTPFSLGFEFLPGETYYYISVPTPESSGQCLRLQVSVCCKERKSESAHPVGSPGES
Source text: More particularly murine antibodies E5, E15, E22 and E47 were humanized using a computer-aided CDR-grafting method (Abysis Database, UCL Business Pic.) and standard molecular engineering techniques to generate humanized antibodies E5, E15, E22 and E47, hereinafter huE5, huE15, huE22 and huE47, respectively. The human framework regions of the variable regions were selected based on their highest sequence homology to the mouse framework sequence and its canonical structure. For the purposes of the analysis the assignment of amino acids to each of the CDR domains is in accordance with the Kabat et al. numbering.

Molecule: COc1cccc2c1C(=O)c1c(O)c3c(c(O)c1C2=O)C[C@@](O)(C(=O)CO)C[C@@H]3O[C@H]1C[C@H](N)[C@H](O)[C@H](C)O1 [Doxorubicin, doxorubicin, reference compound]
mean tumor volume ([1]; Day 0): 186 ± 33
mean tumor volume ([1]; Day 7): 282 ± 50
mean tumor volume ([1]; Day 14): 171 ± 32
mean tumor volume ([1]; Day 17): 122 ± 24
mean tumor volume ([1]; Day 24): 83 ± 11
mean tumor volume ([1]; Day 28): 118 ± 17
mean tumor volume ([1]; Day 35): 361 ± 40
mean tumor volume ([1]; Day 42): 712 ± 97
mean tumor volume ([1]; Day 49): 966 ± 85
% TGI (BR17): 66% TGI
Regression (TTP, Days) or % TGI (BR25): No activity
tumor volume ± SEM ([2]; Day 0): 244 ± 17 mm^3
tumor volume ± SEM ([2]; Day 7): 416 ± 61 mm^3
tumor volume ± SEM ([2]; Day 14): 553 ± 39 mm^3
tumor volume ± SEM ([2]; Day 21): 729 ± 91 mm^3
% TGI ([2]; 1.5 mpk, BR22 PDX): 27% TGI
impact on tumor growth ([2]; in vivo): Neither the control ADC nor doxorubicin SOC impacted tumor growth
tumor volume ± SEM ([3]; Day 0): 166 ± 18 mm^3
tumor volume ± SEM ([3]; Day 7): 494 ± 70 mm^3
tumor volume ± SEM ([3]; Day 11): 752 ± 92 mm^3
tumor volume ± SEM ([3]; Day 18): 966 ± 32 mm^3
% TGI ([3]; 1.5 mpk, BR5 PDX): 44% TGI
impact on tumor growth ([3]; in vivo): neither the control ADC nor doxorubicin standard-of-care (SOC) impacted tumor growth
mean tumor volume ([4]; Day 0): 160 ± 11
mean tumor volume ([4]; Day 7): 304 ± 20
mean tumor volume ([4]; Day 14): 458 ± 24
mean tumor volume ([4]; Day 21): 592 ± 56
mean tumor volume ([4]; Day 28): 759 ± 111
% TGI ([4]; 1.5 mpk, BR31 PDX): 30% TGI
impact on tumor growth ([4]; in vivo): neither the control ADC nor doxorubicin SOC impacted tumor growth
Regression (TTP, Days) or % TGI (BR64): No activity
tumor volume ± SEM ([5]; Day 0): 167 ± 13 mm^3
tumor volume ± SEM ([5]; Day 7): 178 ± 20 mm^3
tumor volume ± SEM ([5]; Day 22): 322 ± 38 mm^3
tumor volume ± SEM ([5]; Day 14): 227 ± 25 mm^3
tumor volume ± SEM ([5]; Day 28): 326 ± 34 mm^3
% TGI ([5]; 1.5 mpk, BR13): 16% TGI
impact on tumor growth ([5]; in vivo): neither the control ADC nor doxorubicin SOC impacted tumor growth
tumor volume ± SEM ([6]; Day 0): 141 ± 13 mm^3
tumor volume ± SEM ([6]; Day 4): 182 ± 11 mm^3
tumor volume ± SEM ([6]; Day 11): 267 ± 31 mm^3
tumor volume ± SEM ([6]; Day 18): 318 ± 32 mm^3
tumor volume ± SEM ([6]; Day 25): 374 ± 50 mm^3
% TGI ([6]; 1.5 mpk, BR56 PDX): 49% TGI
impact on tumor growth ([6]; in vivo): neither the control ADC nor doxorubicin SOC impacted tumor growth

Molecule: N.N.[Cl][Pt][Cl] [Cisplatin, cisplatin, reference compound]
Regression (TTP, Days) [7]: Regression (60) Days
Regression (TTP, Days) ([1]; 5 mpk, once a week for 2 cycles, OV39): Regression (28) Days
mean tumor volume ([8]; Day 0): 153 ± 22
mean tumor volume ([8]; Day 5): 146 ± 27
mean tumor volume ([8]; Day 18): 198 ± 29
mean tumor volume ([8]; Day 25): 205 ± 36
mean tumor volume ([8]; Day 32): 238 ± 49
mean tumor volume ([8]; Day 39): 221 ± 40
mean tumor volume ([8]; Day 47): 243 ± 42
mean tumor volume ([8]; Day 53): 265 ± 63
mean tumor volume ([8]; Day 60): 296 ± 80
mean tumor volume ([8]; Day 67): 265 ± 82
% TGI ([8]; 5 mpk, once a week for 2 cycles, OV63 PDX): 35% TGI

affinity for EFNA4 antigen relative to murine counterpart (human EFNA4): slightly lower affinity
B1: huE5: humanized antibody E5, VH SEQ ID NO: 5, VL SEQ ID NO: 7 (antibody, V domains shown)
VH: EVQLVESGGGLVQPGGSLRLSCAASGFTVTTYGVDWVRQAPGKGLEWLGVIWGGGSTNYNSALKSRFTISRDNSKNTLYLQMNSLRAEDTAVYYCASDWAYWGQGTLVTVSS
VL: DIQMTQSPSSLSASVGDRVTITCRASQNVGTNVAWFQQKPGKAPKSLIHSASYRYSGVPSRFSGSGSGTDFTLTISSLQPEDFATYYCQQYKRYPYTFGGGTKLEIK

From patent US9872922B2, “Anti-EFNA4 antibody-drug conjugates” (PFIZER, INC., priority 2013, dated 2018)
